Key:
in vivo = settings: rat; for AUC / Cmax / increase of relative bioavailability by CSE-BuF compared to CSE-Bu / %Fr (relative bioavailability): male, Sprague Dawley; for AUC / Cmax / %Fr (relative bioavailability): 250 mg/kg
Procedure: All analytes were analyzed using API-QTRAP 4000 mass spectrometer (ABSciex, Canada) equipped with electrospray ionization (ESI) source in negative ion ([M-H]^−) mode [apigenin, isovitexin, emodin, luteolin, 3′,4′,7-trihydroxyflavone (THF), and fenofibric acid (FFA)] and quantified using Analyst 1.6 software (Applied Biosystems, MDS Sciex Toronto, Canada). Quantification was performed by multi-reaction monitoring (MRM), by monitoring the parent ion to product ion transition of 269.3/116.9 for apigenin, 431.2/311 for isovitexin, 269.1/224.9 for emodin, 284.9/133 for luteolin, 268.9/132.8 for THF, 316.9/230.9 for FFA (IS for apigenin, isovitexin, emodin, luteolin, and THF). Compound parameters, viz. declustering potential (V), entrance potential (V), collision energy, collision exit potential were −76, −10, −49, and −5 for apigenin; −100, −10, −20 and −15 for isovitexin; −100, −10, −40, and −10 for emodin; −100, −10, −50, and −20 for luteolin; −100, −10, −40, and −10 for THF; −55, −10, −12 and −10 for FFA; respectively. Source parameters, viz. curtain gas (psi), collision gas, ionspray voltage (V), ion source temperature (°C), nebulizer gas (GS1, psi) and turbo ion gas (GS2, psi) for apigenin, isovitexin, emodin, luteolin, THF, and FFA were 30, high, −4500, 500, 50, 50 respectively.
Shimadzu UFLC system (Kyoto, Japan) equipped with a binary pump (LC-20AD), a degasser (DGU-20A3), an autosampler (SIL-HTc) and a column oven (CTO-20AC) was used to inject the samples. The chromatographic separation of apigenin, isovitexin, emodin, luteolin, THF and FFA were performed on Phenomenex Luna (C18 (2), 100A, 150 × 4.6 mm, 3 μ) column with a mobile phase consisting of methanol: 10 mM ammonium acetate, 95:05 (v/v) at 0.6 mL/min flow rate. The temperature of the column oven was set at 40 °C during analysis. 10 µL samples were injected for quantification.
For extraction of apigenin, isovitexin, emodin, luteolin, THF, liquid-liquid extraction (LLE) method was applied for processing rat plasma. Plasma (100 µL) was incubated with 50 µL β-glucuronidase enzyme (2 mg/mL in 100 mM ammonium acetate buffer pH 5), and 50 µL ammonium acetate buffer (100 mM, pH 5) for 2 h at 37°C on water shaking bath. 200 µL ACN containing IS (FFA, 100 ng/mL) was added to plasma, vortex for 15 sec, and then 100 µL 0.1% formic acid (in 10 mM ammonium formate) was added. After vortexing for 5 min on vortexer (IKA^(R) VIBRAX VXR basic) at 1200 rpm, 2 mL ethyl acetate was added. The mixture was again vortexed for 10 min and then centrifuged at 10000 rpm for 5 min. The supernatant (1.5 mL) was transferred into Ria vial and completely dried in a TurboVap. The dried residue was reconstituted with 100 µL of mobile phase and analyzed by LC-MS/MS[44].
For determination of osteogenic compounds in the plasma of rats given CSE-Bu and CSE-BuF, we recruited male Sprague Dawley (SD) rats (220 ± 20 g) and were fasted overnight with free access to water. Rats were divided into 2 groups consisting of 6/group. One group received CSE-Bu (250 mg/kg/oral) and the other received CSE-BuF (250 mg/kg/oral). Blood (300 µL) was collected into 0.5 ml centrifuged tube containing EDTA at 0.25, 0.5, 1, 2, 4, 8, 12, 24, and 48 h and plasma was separated followed by centrifugation at 10000 rpm for 10 min and stored at -80 °C for further analysis. For pharmacokinetic analysis, plasma concentration versus time was plotted and analyzed by non-compartmental analysis method using WinNonlin (Pharsight, Mountain View, CA) software.

[1] = parameters: method as in PMID 30703497; settings: cited from earlier work
bone = settings: cited from earlier work
[2] = type: in vivo
Procedure: (§1) All treatments lasted for 4 weeks.
Body composition of live rats was analyzed using an Echo-MRI Body Composition Analyzer E26-226-RM (EchoMRI LLC, USA) as per our previously described method[14],[47]–[50].

femur diaphysis = assay: GIO model: bone dynamic histomorphometry (double calcein labeling); type: in vivo, male SD rats; settings: versus control (Veh)
Procedure: as §1
For dynamic histomorphometric measurements, double calcein labeling was performed with an interval of 10 days between two calcein injections. We measured the periosteal perimeter, single-labeled surface (sLS), double labeled surface (dLS), and interlabeled thickness (IrLTh).

[3] = system: L5 vertebra and femur diaphysis; assay: GIO model: bone strength (L5 compression, femur 3-point bending); type: in vivo, male SD rats
Procedure: as §1
Bone mechanical strength was measured by three-point bending test for femur diaphysis and compression test for L5 vertebrae using a bone strength tester TK 252 C (Muromachi Kikai Co. Ltd, Tokyo, Japan) according to a previously published protocol[14],[52].

[4] = system: serum PINP, CTX-I, sclerostin (SOST); assay: GIO model: serum biochemical markers by ELISA; type: in vivo, male SD rats
Procedure: as §1
(§2) The serum samples were collected from blood by centrifugation at 3000 rpm. Serum cross-linked C-telopeptide of Type I collagen (CTX-I), procollagen type I N-terminal propeptide (PINP), sclerostin (SOST), interleukin 1 beta (IL-1β) levels were determined by ELISA (MyBioSource, USA) following the manufacturer’s protocols.

miR-29a, miR-17, miR-20a = assay: GIO model: miRNA expression in bones (TaqMan assay); parameters: species or system male SD rats; settings: rat, in vivo
Excerpt: as §1
TaqMan assay (Thermo Fisher Scientific, USA) was used to determine miRNA expression in bones. Specific assay was designed based on published sequence using Thermo Fisher miRNA assay design tool. Assay ID of different miRNA was; hsa-miR-29a (OO2112), hsa-miR-17 (OO2308), hsa-miR-20a (OOO580) and U6 snRNA (OO1973)[54].

[5] = system: GILZ mRNA in thymus and bone; serum IL-1β; assay: Evaluation of the anti-inflammatory response (GILZ mRNA, serum IL-1β); parameters: species or system male SD rats; settings: rat, in vivo
Procedure: as §2
Primer sequences are listed below:
Serum IL-1β level were measured to evaluate the effect of CSE-BuF on glucocorticoid-mediated anti-inflammatory response.

gastrocnemius muscle = assay: GIO model: muscle histomorphometry; type: in vivo, male SD rats; settings: versus control
Procedure: as §1
Gastrocnemius muscles were carefully dissected and stored in chilled PBS for 48 h. Tissues were then transferred to 30% sucrose solution (in PBS) at 4 °C until they sank to the bottom. Tissues were embedded in OCT tissue freezing medium (Leica Bio systems, India) and cryo-sections (7 µm) were made using a Cryotome™ FSE Cryostat (Thermo Scientific). Tissue sections were collected on poly-L-lysine coated slides. For H&E staining, sections were rehydrated in PBS for 10 min and fixed in 10% formalin for 3 min. Then H&E staining was performed and mounted with DPX (Sigma). Quantitative analysis for determining cross-sectional area and Feret’s diameter of the muscle fibers were performed using Image J software[50],[56].

[6] = system: atrogin 1 and MuRF1 in gastrocnemius muscle; assay: GIO model: immunoblotting of muscle atrogenes; parameters: species or system male SD rats; settings: rat, in vivo
Procedure: as §1
Gastrocnemius muscle samples were collected from each group and protein lysates were prepared to determine the levels of muscle atrogenes [atrogin 1], and muscle ring finger protein (MuRF1). Relative expression of these proteins was detected by immunoblot analysis using specific antibodies againts atrogin 1 (Abcam; 1:1000 dilution), MuRF1 (Santa Cruz Biotechnology; 1:1000 dilution), and GAPDH (Merck Millipore; 1:1000 dilution). Densitometric analyses of immunoblots were performed using ImageJ software.

[7] = system: OCN, TRAP, DMP-1, MEPE, RANKL mRNA in bones; assay: GIO model: osteoblast-, osteoclast- and osteocyte-specific genes in bones by qPCR; settings: rat, in vivo
[8] = in vivo, AUC, CSE-BuF at 250 mg/kg orally, rat plasma, Mean ± SD
[9] = in vivo, CSE-BuF at 250 mg/kg orally, rat plasma, Mean ± SD
[10] = 4 weeks, MP 5 mg/kg s.c. daily, CSE-BuF 50 mg/kg oral daily, mean ± SEM, n = 10/group

Row | SMILES | AUC (in vivo; po, AUC) | Cmax (in vivo; po) | plasma level after single oral dosing of CSE-Bu (in words) (in vivo) | plasma level after single oral dosing of CSE-BuF (in words) (in vivo) | AUC (in vivo; [8]) | Cmax (in vivo; [9]) | in vivo bone conserving effect (bone) | increase of relative bioavailability by CSE-BuF compared to CSE-Bu (in vivo; po) | %Fr (relative bioavailability) (in vivo; po) | other results
1 | O=c1cc(-c2ccc(O)c(O)c2)oc2cc(O)ccc12 [3′,4′,7-trihydroxyflavone (THF), 3′,4′,7-trihydroxyflavone] | 764 ± 382 ng·h/mL | 201 ± 107 ng/mL | not detectable | detectable and measured in plasma | – | – | – | – | – | –
2 | O=c1cc(-c2ccc(O)cc2)oc2cc(O)c([C@@H]3O[C@H](CO)[C@@H](O)[C@H](O)[C@H]3O)c(O)c12 [Apigenin 6-C-glucoside Or Isovitexin, Apigenin 6-C-glucoside] | – | – | not detectable | detectable and measured in plasma | 17.9 ± 10.4 ng·h/mL | 7.74 ± 4.29 ng/mL | – | – | – | osteogenic effect in vitro among compounds of CSE-Bu [1]: best osteogenic effect in vitro; in vivo osteogenic effect (bone; mice, ref unpublished data, S. Pal and N. Chattopadhyay): has in vivo osteogenic effect in mice
3 | Cc1cc(O)c2c(c1)C(=O)c1cc(O)cc(O)c1C2=O [Emodin] | – | – | could be measured in plasma | increases | 239 ± 31.1 ng·h/mL | 29.2 ± 13 ng/mL | in vivo bone conserving effect has been reported | 279% | 379.68 ± 87.63% | AUC (in vivo; in vivo, AUC, CSE-Bu at 250 mg/kg orally, rat plasma, Mean ± SD): 69.3 ± 33.2 ng·h/mL; Cmax (in vivo; in vivo, CSE-Bu at 250 mg/kg orally, rat plasma, Mean ± SD): 12.3 ± 3.8 ng/mL
4 | C[C@H]1C[C@@H]2[C@H]([C@@H](O)C[C@@]3(C)[C@H]2CC[C@]3(O)C(=O)CO)[C@@]2(C)C=CC(=O)C=C12 [MP, Methylprednisolone] | – | – | – | – | – | – | – | – | – | Body weight [2, 10]: 239.86 ± 5.71 gm; Fat Mass [2, 10]: 6.12 ± 0.58 %; Lean Mass [2, 10]: 71.96 ± 2.43 %; decrease of fat mass compared to control ([2]; rat, in vivo): 40%; decrease of lean mass compared to control ([2]; rat, in vivo): 11%; mineralizing surface (pMS/BS), mineral apposition rate (pMAR) and bone formation rate (pBFR/BS) (femur diaphysis): significant decreases; strength parameters (peak load, energy to failure and stiffness) [3]: decreased all strength parameters; serum sclerostin ([4]; rat, in vivo): significantly increased; serum CTX-I (bone resorption marker) ([4]; versus control (Veh)): increased; serum PINP (bone formation marker) ([4]; versus control (Veh)): suppressed; levels of miRNA 17, 20a and 29a in bones (miR-29a, miR-17, miR-20a): significant decreases; GILZ mRNA in thymus and bone [5]: robust increase; serum IL-1β [5]: suppressed; cross-sectional area and Feret's diameter of gastrocnemius muscle (gastrocnemius muscle): significantly reduced; atrogin and MuRF-1 protein levels in muscle [6]: increased; RANKL mRNA in bones [7]: robust increase; TRAP mRNA in bones [7]: robust increase; mRNA levels of osteocyte markers DMP-1 and MEPE in bones [7]: significant decrease; osteocalcin (OCN) mRNA level in bones [7]: significantly suppressed

Continued, in another order:

Row | AUC (in vivo; po, AUC) | Cmax (in vivo; po) | plasma level after single oral dosing of CSE-Bu (in words) (in vivo) | plasma level after single oral dosing of CSE-BuF (in words) (in vivo) | SMILES | AUC (in vivo; [8]) | Cmax (in vivo; [9]) | in vivo bone conserving effect (bone) | increase of relative bioavailability by CSE-BuF compared to CSE-Bu (in vivo; po) | %Fr (relative bioavailability) (in vivo; po) | other results
5 | 2.2 ± 1.15 ng·h/mL | 3.98 ± 3.03 ng/mL | not detectable | detectable and measured in plasma | O=c1cc(-c2ccc(O)cc2)oc2cc(O)cc(O)c12 [Apigenin] | – | – | in vivo bone conserving effect has been reported | – | – | –
6 | 259 ± 144 ng·h/mL | – | could be measured in plasma | increases | O=c1cc(-c2ccc(O)c(O)c2)oc2cc(O)cc(O)c12 [Luteolin] | – | – | in vivo bone conserving effect has been reported | 36% | 136.94 ± 17.14% | AUC (in vivo; po): 456.33 ± 131.28 ng·h/mL

— PMC6957531, “A butanolic fraction from the standardized stem extract of Cassia occidentalis L delivered by a self-emulsifying drug delivery system protects rats from glucocorticoid-induced osteopenia and muscle atrophy” (Scientific Reports, 2020)
